Assay results published in article PMC11594716, “Rhodanine–Piperazine Hybrids as Potential VEGFR, EGFR, and HER2 Targeting Anti-Breast Cancer Agents” (International Journal of Molecular Sciences, 2024).

Experiments:
Type in all cases: cell-based, human
[1] = system: MDA-MB-231 cell line; experiment: MTT cytotoxicity assay, MDA-MB-231 breast cancer cells; settings: for Selectivity index SI MDA-MB-231: IC50(BJ)/IC50(MDA-MB-231); for IC50: MTT, 48 h incubation
Protocol: (§1) Cytotoxicity of tested compounds was evaluated against breast cancer cell lines (MDA-MB-468, MDA-MB-231, MCF-7, and T47D) and normal human fibroblast BJ cell line as a control. All tested cell lines were obtained from the American Type Culture Collection (ATCC, Manassas, VA, USA). MDA-MB-468 and MDA-MB-231 were cultured in F12-K medium (Corning, New York City, NY, USA), MCF-7 and BJ in EMEM medium (Corning, New York City, NY, USA), and T47D in RPMI medium (Corning, New York City, NY, USA). All of these culture media were supplemented with 10% heat-inactivated FBS (PAN-Biotech, Aidenbach, Germany) and antibiotics (100 U/mL of penicillin, 100 μg/mL of streptomycin, and 0.25 μg/mL amphotericin B, respectively; Sigma-Aldrich, St. Louis, MO, USA) in a humidified 5% CO2 atmosphere at 37 °C. The cells were used exclusively for 10 passages.
(§2) The cells were seeded in 96-well plates at a concentration of 5 × 10^4 cells/mL and incubated at 37 °C with 5% CO2 air. When 70–80% culture confluence was achieved the tested compounds were added. […] The cell viability assessment was measured using the MTT assay (Invitrogen, Waltham, MA, USA) based on the ability of living cells to reduce […] tetrazolium salt, by cellular dehydrogenases, to water-insoluble purple formazan crystals. MTT solution (4 mg/mL) was added to the culture after 48 h of incubation with the tested compounds. Following 4 h of incubation, the medium with MTT salt was removed and the obtained crystals were dissolved in DMSO. The solution absorbency was measured at 570 nm using a PowerWave™ microplate spectrophotometer (Bio-Tek Instruments, Winooski, VT, USA). Each experiment was performed twice with measurement in triplicate. The IC50 values were determined using the AAT Bioquest IC50 calculator with a four parameter logistic regression model (AAT Bioquest, Inc. Pleasanton, CA, USA (14 April 2024). Quest Graph™ IC50 Calculator. AAT Bioquest. https://www.aatbio.com/tools/ic50-calculator, accessed on 12 October 2024).

[2] = system: MDA-MB-468 cell line; experiment: MTT cytotoxicity assay, MDA-MB-468 breast cancer cells; settings: for Selectivity index SI MDA-MB-468: IC50(BJ)/IC50(MDA-MB-468); for IC50: MTT, 48 h incubation
Protocol: as §1, §2

[3] = system: MCF-7 cell line; experiment: MTT cytotoxicity assay, MCF-7 breast cancer cells; settings: for Selectivity index SI MCF-7: IC50(BJ)/IC50(MCF-7); for IC50: MTT, 48 h incubation
Protocol: as §1, §2

[4] = system: T47D cell line; experiment: MTT cytotoxicity assay, T47D breast cancer cells; settings: for Selectivity index SI T47D: IC50(BJ)/IC50(T47D); for IC50: MTT, 48 h incubation
Protocol: as §1, §2

## 5-{[4-(3-Fluoromethylphenyl)piperazin-1-yl]methylidene}-2-thioxo-1,3-thiazolidin-4-one [Compound 9]
[1]
  Selectivity index SI MDA-MB-231: 1
  IC50: > 200 µM
[2]
  Selectivity index SI MDA-MB-468: 3.17
  IC50: 63 µM
[3]
  Selectivity index SI MCF-7: 2.74
  IC50: 73 µM
[4]
  Selectivity index SI T47D: 1
  IC50: > 200 µM

## O=C1NC(=S)SC1=CN1CCN(c2ccc(Cl)cc2)CC1 [Compound 5, 5-{[4-(4-Chlorophenyl)piperazin-1-yl]methylidene}-2-thioxo-1,3-thiazolidin-4-one]
[1]; Homo sapiens, MDA-MB-231
  IC50: > 200 µM
[1]
  Selectivity index SI MDA-MB-231: 1
[2]; Homo sapiens, MDA-MB-468
  IC50: 168 µM
[2]
  Selectivity index SI MDA-MB-468: 1.19
[3]; Homo sapiens, MCF7
  IC50: > 200 µM
[3]
  Selectivity index SI MCF-7: 1
[4]; Homo sapiens, T47D
  IC50: > 200 µM
[4]
  Selectivity index SI T47D: 1

## O=C1NC(=S)SC1=CN1CCN(c2ccc([N+](=O)[O-])cc2)CC1 [Compound 6, 5-{[4-(4-Nitrophenyl)piperazin-1-yl]methylidene}-2-thioxo-1,3-thiazolidin-4-one]
[1]; Homo sapiens, MDA-MB-231
  IC50: 92 µM
[1]
  Selectivity index SI MDA-MB-231: 2.17
[2]; Homo sapiens, MDA-MB-468
  IC50: 54 µM
[2]
  Selectivity index SI MDA-MB-468: 3.7
[3]; Homo sapiens, MCF7
  IC50: > 200 µM
[3]
  Selectivity index SI MCF-7: 1
[4]; Homo sapiens, T47D
  IC50: 186 µM
[4]
  Selectivity index SI T47D: 1.08

## O=C1NC(=S)SC1=CN1CCN(c2cccc(Cl)c2)CC1 [Compound 7, 5-{[4-(3-Chlorophenyl)piperazin-1-yl]methylidene}-2-thioxo-1,3-thiazolidin-4-one]
[1]; Homo sapiens, MDA-MB-231
  IC50: 157 µM
[1]
  Selectivity index SI MDA-MB-231: 1.27
[2]; Homo sapiens, MDA-MB-468
  IC50: 95 µM
[2]
  Selectivity index SI MDA-MB-468: 2.1
[3]; Homo sapiens, MCF7
  IC50: > 200 µM
[3]
  Selectivity index SI MCF-7: 1
[4]; Homo sapiens, T47D
  IC50: > 200 µM
[4]
  Selectivity index SI T47D: 1

## O=C1NC(=S)SC1=CN1CCN(c2cccc(F)c2)CC1 [Compound 8, 5-{[4-(3-Fluorophenyl)piperazin-1-yl]methylidene}-2-thioxo-1,3-thiazolidin-4-one]
[1]; Homo sapiens, MDA-MB-231
  IC50: 155 µM
[1]
  Selectivity index SI MDA-MB-231: 1.29
[2]; Homo sapiens, MDA-MB-468
  IC50: > 200 µM
[2]
  Selectivity index SI MDA-MB-468: 1
[3]; Homo sapiens, MCF7
  IC50: > 200 µM
[3]
  Selectivity index SI MCF-7: 1
[4]; Homo sapiens, T47D
  IC50: > 200 µM
[4]
  Selectivity index SI T47D: 1

## O=C1NC(=S)SC1=CN1CCN(c2ccc(Cl)c(Cl)c2)CC1 [Compound 10, 5-{[4-(3,4-Dichlorophenyl)piperazin-1-yl]methylidene}-2-thioxo-1,3-thiazolidin-4-one]
[1]; Homo sapiens, MDA-MB-231
  IC50: 105 µM
[1]
  Selectivity index SI MDA-MB-231: 1.90
[2]; Homo sapiens, MDA-MB-468
  IC50: 55 µM
[2]
  Selectivity index SI MDA-MB-468: 3.63
[3]; Homo sapiens, MCF7
  IC50: 31 µM
[3]
  Selectivity index SI MCF-7: 6.45
[4]; Homo sapiens, T47D
  IC50: 91 µM
[4]
  Selectivity index SI T47D: 2.2

## COc1cccc(N2CCN(C=C3SC(=S)NC3=O)CC2)c1 [Compound 11, 5-{[4-(3-Methoxyphenyl)piperazin-1-yl]methylidene}-2-thioxo-1,3-thiazolidin-4-one]
[1]; Homo sapiens, MDA-MB-231
  IC50: 160 µM
[1]
  Selectivity index SI MDA-MB-231: 1.25
[2]; Homo sapiens, MDA-MB-468
  IC50: 92 µM
[2]
  Selectivity index SI MDA-MB-468: 2.17
[3]; Homo sapiens, MCF7
  IC50: > 200 µM
[3]
  Selectivity index SI MCF-7: 1
[4]; Homo sapiens, T47D
  IC50: > 200 µM
[4]
  Selectivity index SI T47D: 1

## O=C1NC(=S)SC1=CN1CCN(C(c2ccc(F)cc2)c2ccc(F)cc2)CC1 [Compound 12, 5-({4-[Bis(4-fluorophenyl)methyl]piperazin-1-yl}methylidene)-2-thioxo-1,3-thiazolidin-4-one]
[1]; Homo sapiens, MDA-MB-231
  IC50: 147 µM
[1]
  Selectivity index SI MDA-MB-231: 1.36
[2]; Homo sapiens, MDA-MB-468
  IC50: 37 µM
[2]
  Selectivity index SI MDA-MB-468: 5.41
[3]; Homo sapiens, MCF7
  IC50: 36 µM
[3]
  Selectivity index SI MCF-7: 5.56
[4]; Homo sapiens, T47D
  IC50: > 200 µM
[4]
  Selectivity index SI T47D: 1

## O=C1C(=CN2CCN(c3ccc(Cl)cc3)CC2)SC(=S)N1c1ccccc1 [Compound 13, 5-{[4-(4-Chlorophenyl)piperazin-1-yl]methylidene}-3-phenyl-2-thioxo-1,3-thiazolidin-4-one]
[1]; Homo sapiens, MDA-MB-231
  IC50: 145 µM
[1]
  Selectivity index SI MDA-MB-231: 1.38
[2]; Homo sapiens, MDA-MB-468
  IC50: 179 µM
[2]
  Selectivity index SI MDA-MB-468: 1.12
[3]; Homo sapiens, MCF7
  IC50: 67 µM
[3]
  Selectivity index SI MCF-7: 2.99
[4]; Homo sapiens, T47D
  IC50: > 200 µM
[4]
  Selectivity index SI T47D: 1

## O=C1C(=CN2CCN(c3cccc(Cl)c3)CC2)SC(=S)N1c1ccccc1 [Compound 14, 5-{[4-(3-Chlorophenyl)piperazin-1-yl]methylidene}-3-phenyl-2-thioxo-1,3-thiazolidin-4-one]
[1]; Homo sapiens, MDA-MB-231
  IC50: > 200 µM
[1]
  Selectivity index SI MDA-MB-231: 1
[2]; Homo sapiens, MDA-MB-468
  IC50: > 200 µM
[2]
  Selectivity index SI MDA-MB-468: 1
[3]; Homo sapiens, MCF7
  IC50: > 200 µM
[3]
  Selectivity index SI MCF-7: 1
[4]; Homo sapiens, T47D
  IC50: > 200 µM
[4]
  Selectivity index SI T47D: 1

## O=C1C(=CN2CCN(C(c3ccc(F)cc3)c3ccc(F)cc3)CC2)SC(=S)N1c1ccccc1 [Compound 15, 5-({4-[Bis(4-fluorophenyl)methyl]piperazin-1-yl}methylidene)-3-phenyl-2-thioxo-1,3-thiazolidin-4-one]
[1]; Homo sapiens, MDA-MB-231
  IC50: 76 µM
[1]
  Selectivity index SI MDA-MB-231: 2.63
[2]; Homo sapiens, MDA-MB-468
  IC50: 47 µM
[2]
  Selectivity index SI MDA-MB-468: 4.26
[3]; Homo sapiens, MCF7
  IC50: 45 µM
[3]
  Selectivity index SI MCF-7: 4.44
[4]; Homo sapiens, T47D
  IC50: 189 µM
[4]
  Selectivity index SI T47D: 1.06

## O=C1C(=CN2CCN(c3cccc(F)c3)CC2)SC(=S)N1c1ccccc1 [Compound 16, 5-{[4-(3-Fluorophenyl)piperazin-1-yl]methylidene}-3-phenyl-2-thioxo-1,3-thiazolidin-4-one]
[1]; Homo sapiens, MDA-MB-231
  IC50: 179 µM
[1]
  Selectivity index SI MDA-MB-231: 1.12
[2]; Homo sapiens, MDA-MB-468
  IC50: > 200 µM
[2]
  Selectivity index SI MDA-MB-468: 1
[3]; Homo sapiens, MCF7
  IC50: > 200 µM
[3]
  Selectivity index SI MCF-7: 1
[4]; Homo sapiens, T47D
  IC50: > 200 µM
[4]
  Selectivity index SI T47D: 1

## COc1cccc(N2CCN(C=C3SC(=S)N(c4ccccc4)C3=O)CC2)c1 [Compound 17, 5-{[4-(3-Methoxyphenyl)piperazin-1-yl]methylidene}-3-phenyl-2-thioxo-1,3-thiazolidin-4-one]
[1]; Homo sapiens, MDA-MB-231
  IC50: 118 µM
[1]
  Selectivity index SI MDA-MB-231: 1.69
[2]; Homo sapiens, MDA-MB-468
  IC50: 58 µM
[2]
  Selectivity index SI MDA-MB-468: 3.45
[3]; Homo sapiens, MCF7
  IC50: 169 µM
[3]
  Selectivity index SI MCF-7: 1.18
[4]; Homo sapiens, T47D
  IC50: > 200 µM
[4]
  Selectivity index SI T47D: 1
